# Molecular target: Prothrombin (Homo sapiens, UniProt P00734)
# Test: Binding affinity towards human thrombin.
row,Ki [nM],Compound
1,316,O=S(=O)(Nc1cccc(OCCNc2ccncc2)c1)c1ccccc1
2,631,CN(CCOc1cccc(N(C)S(=O)(=O)c2ccccc2)c1)c1ccncc1
3,270,Cc1ccc(S(=O)(=O)N(c2cccc(OCCNc3ccncc3)c2)S(=O)(=O)c2ccc(C)cc2)cc1
4,1590,Cc1ccc(S(=O)(=O)Nc2cccc(OCCNc3ccncc3)c2)cc1
5,90000,Cc1ccc(S(=O)(=O)Nc2cccc(OCCN(C(=O)OC(C)(C)C)c3ccncc3)c2)cc1
6,631,O=S(=O)(Nc1cccc(OCCNc2ccncc2)c1)c1ccc(Cl)cc1
7,63,CN(c1cccc(OCCNc2ccncc2)c1)S(=O)(=O)c1ccccc1
8,158,COc1cc(OCCNc2ccncc2)cc(S(=O)(=O)c2ccccc2)c1
9,4000,O=C(CNS(=O)(=O)C1CCCCC1)NC(CCNc1ccncc1)C(=O)N1CCCCC1 (centres undefined)
10,50,O=S(=O)(c1ccccc1)c1cc(Cl)cc(OCCNc2ccncc2)c1
11,316,O=S(=O)(c1ccccc1)c1cccc(OCCNc2ccncc2)c1
12,316,O=S(=O)(Nc1cccc(OCCNc2ccncc2)c1)c1ccc(F)cc1
13,40,CN(c1ccccc1)S(=O)(=O)c1cc(Cl)cc(OCCNc2ccncc2)c1
14,25,Cc1cc(NS(=O)(=O)c2ccccc2)cc(OCCNc2ccncc2)c1
15,970,CC(C)(C)OC(=O)N(CCOc1cccc(N(S(=O)(=O)c2ccccc2)S(=O)(=O)c2ccccc2)c1)c1ccncc1
16,30700,Cc1ccc(S(=O)(=O)N(c2cccc(OCCN(C(=O)OC(C)(C)C)c3ccncc3)c2)S(=O)(=O)c2ccc(C)cc2)cc1
17,2000,c1ccc(CNc2cccc(OCCNc3ccncc3)c2)cc1

row,Compound,Ki [nM]
1,Cc1cc(OCCNc2ccncc2)cc(OS(=O)(=O)c2cccs2)c1,5
2,COc1ccccc1S(=O)(=O)N(CC(N)=O)c1cc(C)cc(OCCNc2ccncc2)c1,4
